Activity calls are given as the source filed them. No cut-off for these calls is given here.

This note sets out measurements from ChEMBL document CHEMBL5338744, “Development and Characterization of Benzoselenazole Derivatives as Potent and Selective c-MYC Transcription Inhibitors” (J Med Chem, 2023).

Series [1] has as its system HepG2. As to the kind of experiment: Cytotoxicity against human HepG2 cells assessed as reduction in cell viability incubated for 48 hrs by MTT assay. The settings on record: HepG2, 48 h. In kind it is functional, cell-based.
The next series relates to HCT-116. The series can be described thus: Cytotoxicity against human HCT-116 cells assessed as reduction in cell viability incubated for 48 hrs by MTT assay. In kind it is functional, cell-based. The following applies: HCT-116, 48 h. On the technique in general: Tetrazolium dyes change colour on reduction, which living cells bring about.
Series [2] is described as follows: Cytotoxicity against human NCM460 cells assessed as reduction in cell viability incubated for 48 hrs by MTT assay. In kind it is toxicity, cell-based.
In series [3] the target is Quadruplex DNA. As to the kind of experiment: Binding affinity to G-quadruplex DNA pu22 (unknown origin) by fluorescence spectroscopic analysis. In kind it is nucleic-acid assay.
In series [4] the target is Quadruplex DNA. The series can be described thus: Binding affinity to G-quadruplex DNA pu22 mutant (unknown origin) by fluorescence spectroscopic analysis. In kind it is nucleic-acid assay.
Series [5] addresses Quadruplex DNA. As to the kind of experiment: Binding affinity to G-quadruplex DNA c-kit1 (unknown origin) by fluorescence spectroscopic analysis. In kind it is nucleic-acid assay.
Series [6] deals with Quadruplex DNA. As to the kind of experiment: Binding affinity to G-quadruplex DNA VEGF (unknown origin) by fluorescence spectroscopic analysis. In kind it is nucleic-acid assay.
For series [7], the target named is Quadruplex DNA. The series can be described thus: Binding affinity to G-quadruplex DNA HRAS (unknown origin) by fluorescence spectroscopic analysis. In kind it is nucleic-acid assay.
Series [8] deals with Quadruplex DNA. As to the kind of experiment: Binding affinity to G-quadruplex DNA htg22 (unknown origin) by fluorescence spectroscopic analysis. In kind it is nucleic-acid assay.
Series [9] addresses Quadruplex DNA. The series can be described thus: Binding affinity to G-quadruplex DNA ds26 (unknown origin) by fluorescence spectroscopic analysis. In kind it is nucleic-acid assay.
Series [10] concerns HepG2. As to the kind of experiment: Inhibition of c-MYC transcription in human HepG2 cells up to 10 uM incubated for 48 hrs by RT-qPCR analysis. In kind it is functional, cell-based. Background: Quantitative PCR measures a nucleic acid by following its amplification.
Series [11] relates to HepG2. As to the kind of experiment: Downregulation of c-MYC expression level in human HepG2 cells incubated for 48 hrs by Western blotting analysis. In kind it is functional, cell-based. The following applies: dose 0-10 µM.
The nature of series [12]: Cytotoxicity against human L02 cells assessed as reduction in cell viability incubated for 48 hrs by MTT assay. In kind it is toxicity, cell-based.
In series [13] the test system is Quadruplex DNA. The series can be described thus: Binding affinity to G-quadruplex DNA pu22 (unknown origin) assessed as melting temperature at 10 uM by circular dichroism analysis. (Circular dichroism is widely used to follow secondary structure.)
In another series the test system is CA46. As to the kind of experiment: Inhibition of c-MYC G-quadruplex exon 1 transcription in human CA46 cells incubated for 48 hrs by RT-qPCR analysis. In kind it is functional, cell-based. The following applies: dose 1.25-2.5 µM.
A short description of series [14]: Disruption of NM23-H2/c-MYC G quadruplex DNA (unknown origin) interaction incubated for 1 hr by ELISA.
The subject of series [15] is HepG2. The series can be described thus: Disruption of NM23-H2/c-MYC G quadruplex DNA interaction in human HepG2 cells at 1.25 uM incubated for 1 hr by ChIP assay. In kind it is cell-based.
In series [16] the test system is HepG2. As to the kind of experiment: Inhibition of colony formation in human HepG2 cells at 1 uM measured after 14 days by crystal violet staining based assay. In kind it is functional, cell-based. The following applies: time 14.0 day.
Series [17] has as its system HepG2. The series can be described thus: Effect on cell cycle distribution in human HepG2 cells assessed as accumulation of cells in S phase at 1.25 to 5 uM incubated for 48 hrs by PI staining based flow cytometric analysis. In kind it is functional. The settings on record: dose 1.25-5 µM.
The subject of series [18] is HepG2. The series can be described thus: Induction of apoptosis in human hepG2 cells assessed as early apoptotic cells at 1.25 to 5 uM incubated for 48 hrs by Annexin V-FITC and propidium iodide staining based flow cytometric analysis. In kind it is functional. The settings on record: dose 1.25-5 µM.
Series [19] in a line: Toxicity in nude mouse assessed as changes in body weight at 30 mg/kg administered for 5 days. The settings on record: in vivo, 120 h, time 5 day. In kind it is organism-based.
Series [20] can be described thus: Toxicity in nude mouse assessed as mortality at 30 mg/kg administered for 5 days. In kind it is organism-based. The following applies: in vivo, 120 h, time 5 day.
The subject of series [21] is HepG2. As to the kind of experiment: Antitumor activity against human HepG2 cells xenografted in BALB/C-nu/nu mouse assessed as reduction in tumor volume at 15 mg/kg, ip administered every other day for 28 days. In kind it is functional, organism-based. The settings on record: time 28.0 day.
Series [22] concerns HepG2. The series can be described thus: Antitumor activity against human HepG2 cells xenografted in BALB/C-nu/nu mouse assessed as reduction in tumor weight at 15 mg/kg, ip administered every other day for 28 days. In kind it is functional, organism-based. The settings on record: time 28.0 day.
For series [23], the system named is HepG2. The series can be described thus: Antitumor activity against human HepG2 cells xenografted in BALB/C-nu/nu mouse assessed as tumor growth inhibition at 15 mg/kg, ip administered every other day for 28 days. The following applies: HepG2, 672 h, time 28 day, read-out: TGI. In kind it is functional.
Series [24] can be described thus: Toxicity in BALB/C-nu/nu mouse xenografted with human HepG2 cells assessed as sign of pain at 15 mg/kg, ip administered every other day for 28 days. In kind it is organism-based. The following applies: in vivo, 672 h, time 28 day.
A short description of series [25]: Toxicity in BALB/C-nu/nu mouse xenografted with human HepG2 cells assessed as sign of distress at 15 mg/kg, ip administered every other day for 28 days. In kind it is organism-based. The settings on record: in vivo, 672 h, time 28 day.
The nature of series [26]: Toxicity in BALB/C-nu/nu mouse xenografted with human HepG2 cells assessed as sign of discomfort at 15 mg/kg, ip administered every other day for 28 days. In kind it is organism-based. The following applies: in vivo, 672 h, time 28 day.
The nature of series [27]: Toxicity in BALB/C-nu/nu mouse xenografted with human HepG2 cells assessed as changes in body weight at 15 mg/kg, ip administered every other day for 28 days. In kind it is organism-based. The settings on record: in vivo, 672 h, time 28 day.
The nature of series [28]: Toxicity in BALB/C-nu/nu mouse xenografted with human HepG2 cells assessed as abnormality in heart at 15 mg/kg, ip administered every other day for 28 days by hematoxylin and eosin staining method. In kind it is organism-based. The settings on record: in vivo, 672 h, time 28 day.
The nature of series [29]: Toxicity in BALB/C-nu/nu mouse xenografted with human HepG2 cells assessed as abnormality in liver at 15 mg/kg, ip administered every other day for 28 days by hematoxylin and eosin staining method. The settings on record: in vivo, 672 h, time 28 day. In kind it is organism-based.
Series [30] is described as follows: Toxicity in BALB/C-nu/nu mouse xenografted with human HepG2 cells assessed as abnormality in spleen at 15 mg/kg, ip administered every other day for 28 days by hematoxylin and eosin staining method. In kind it is organism-based. The following applies: in vivo, 672 h, time 28 day.
Series [31] is described as follows: Toxicity in BALB/C-nu/nu mouse xenografted with human HepG2 cells assessed as abnormality in lung at 15 mg/kg, ip administered every other day for 28 days by hematoxylin and eosin staining method. The settings on record: in vivo, 672 h, time 28 day. In kind it is organism-based.
A short description of series [32]: Toxicity in BALB/C-nu/nu mouse xenografted with human HepG2 cells assessed as abnormality in kidney at 15 mg/kg, ip administered every other day for 28 days by hematoxylin and eosin staining method. In kind it is organism-based. The following applies: in vivo, 672 h, time 28 day.
Series [33] has as its system HepG2. The series can be described thus: Antitumor activity against human HepG2 cells xenografted in BALB/C-nu/nu mouse assessed as decrease in c-MYC expression in tumor tissue at 15 mg/kg, ip administered every other day for 28 days by immunohistochemical analysis. The following applies: time 28.0 day. In kind it is functional, organism-based.

Regarding `CCn1c2ccccc2c2cc(/C=C/c3oc4ccccc4[n+]3C)ccc21`, the results for the IC50 in the series on HepG2 [1] and in the series on HCT-116 were 43.3 µM and 46.7 µM, respectively. In addition, the IC50 (as a rule, the concentration that gives 50% inhibition) at 48 h in series [2] was above 100 µM.
The matching figures for `CN(C)CCCn1c2ccccc2c2cc(/C=C/c3sc4ccccc4[n+]3C)ccc21`: 11.3 µM, 14.7 µM and 30.2 µM.
`CN(C)CCCn1c2ccccc2c2cc(/C=C/c3nc4ccccc4o3)ccc21`: the IC50 in the series on HepG2 [1] was 21.6 µM; in the series with HCT-116, 36.9 µM. Further, in series [2], the IC50 at 48 h is above 100 µM.
The like results for `CCn1c2ccccc2c2cc(/C=C/c3oc4ccc5ccccc5c4[n+]3C)ccc21` were, in that order, 93.3 µM, 26.3 µM and above 100 µM.
As to `CCn1c2ccccc2c2cc(/C=C/c3[se]c4ccccc4[n+]3C)ccc21`, the Kd (usually the constant that tells how readily two partners part at equilibrium) is 0.4 µM on Quadruplex DNA [3]; above 20 µM at Quadruplex DNA [4]; 6.5 µM at Quadruplex DNA [5]; 7.6 µM at Quadruplex DNA [6]; above 20 µM at Quadruplex DNA [7]; 8.8 µM on Quadruplex DNA [8]. At Quadruplex DNA [9], the Kd is above 20 µM. Further, the IC50 with HepG2 [1] is 1.6 µM; in the series with HCT-116, 3.4 µM. Besides, the results for the IC50 at 48 h in series [2] and in series [12] were 29.2 µM and 27.3 µM, respectively. Further, the inhibition entry with HepG2 [10] was “Active”. The Activity entry in the series on HepG2 [11] was “Dose-Dependent Effect”. Also, the Tm with Quadruplex DNA [13] was determined as 80.1 °C.
With `C[n+]1c(/C=C/c2ccc3c(c2)c2ccccc2n3Cc2ccccc2)[se]c2ccccc21.[I-]`, the Kd on Quadruplex DNA [3] was 0.9 µM; on Quadruplex DNA [4], above 20 µM; at Quadruplex DNA [5] it was 9.6 µM; on Quadruplex DNA [6] it was 17.9 µM; at Quadruplex DNA [7], above 20 µM; on Quadruplex DNA [8] it was above 20 µM. For the same compound, the Kd on Quadruplex DNA [9] is above 20 µM. Moreover, the 50% inhibitory concentration (IC50) was 3.5 µM in the series with HepG2 [1], 4.1 µM in the series with HCT-116 and 9.8 µM in series [14]. Further, the IC50 at 48 h in series [2] was 77.6 µM; in series [12], above 100 µM. Moreover, the inhibition entry in the series on HepG2 [10] and in the series on HepG2 [16] was “Active” each time. Besides, the Activity result is “Dose-Dependent Effect” in the series on HepG2 [11]; 14.6% with HepG2 [17]; 1.7% in the series on HepG2 [18]; “Toxic” in series [19]; “Toxic” in series [20]; “Non-Toxic” in series [24]. Moreover, the Activity result in series [25], in [26], in [27], in series [28], in series [29] and in series [30] was “Non-Toxic” each time. The Activity result in series [31] and in series [32] was “Non-Toxic” in each case. The inhibition entry in the series on CA46 is “Dose-Dependent Effect”. In addition, the result in the series with HepG2 [15], with HepG2 [21], in the series with HepG2 [22] and in the series on HepG2 [33] was Active. For the same compound, the inhibition in vivo at 15 mg/kg in the series on HepG2 [23] is 65.8%. The Tm in the series on Quadruplex DNA [13] came out at 78.3 °C.
`C(=C\c1nc2ccccc2[se]1)/c1ccc2c(c1)c1ccccc1n2Cc1ccccc1`: the IC50 in the series on HepG2 [1] and in the series with HCT-116 was above 100 µM each time. Further, the IC50 at 48 h in [2] is above 100 µM.
In the case of `CCn1c2ccccc2c2cc(/C=C/c3nc4c(ccc5ccccc54)s3)ccc21`, the values for the IC50 in the series with HepG2 [1] and in the series on HCT-116 were 58.7 µM and above 100 µM, respectively. Also, in series [2], the IC50 at 48 h is above 100 µM.
As for `C(=C\c1nc2ccccc2s1)/c1ccc2c(c1)c1ccccc1n2Cc1ccccc1`, the IC50 was 53.2 µM in the series with HepG2 [1] and above 100 µM in the series on HCT-116. In series [2], the IC50 at 48 h is above 100 µM.
`CN(C)CCCn1c2ccccc2c2cc(/C=C/c3oc4ccccc4[n+]3C)ccc21`: the values for the IC50 in the series on HepG2 [1] and in the series with HCT-116 were 5.9 µM and 4.7 µM, respectively. Moreover, the IC50 at 48 h in [2] came to 35.6 µM.
The like results for `CCn1c2ccccc2c2cc(/C=C/c3nc4c(ccc5ccccc54)o3)ccc21` were, in that order, above 100 µM, above 100 µM and above 100 µM.
As for `CCn1c2ccccc2c2cc(/C=C/c3sc4ccccc4[n+]3C)ccc21`, the values for the IC50 with HepG2 [1] and in the series on HCT-116 were 5.7 µM and 4 µM, respectively. For the same compound, in series [2], the IC50 at 48 h was found to be 39.3 µM.
